# Measurements published in patent US20080026996A1, “Selective Vpac2 Receptor Reptide Agonists” (ELI LILLY AND COMPANY, priority 2004, published 2008).
# Like-named read-outs stand apart in the source and are kept apart here. Where a SMILES comes first, the peptide text is derived from it. Where no end group is shown, it is not given here. [ ]: non-standard residue; d: D form. The star is where a group is joined. Hexanoyl = CCCCCC(=O)*; Aib = CC(C)(N)C(=O)O
# Experiments:
# Normal Wistar rats = assay: Delayed IVGTT; format: in vivo, rat; conditions: 10 μg/kg iv, glucose 30 minutes later
# Description: Delayed IVGTT: Perform IVGTT as described above, making the following changes. After the initial blood sample, compound or vehicle is injected i.v. Glucose is injected i.v. 30 minutes later in a separate injection. Blood samples are taken immediately prior to administration of the compound, at 15 minutes after administration of the compound, and at 30 minutes after administration of the compound. The sample at 30 minutes after administration of the compound is taken immediately prior to glucose administration. Blood samples are drawn 2, 4, 6, 10, and 30 minutes after giving glucose (i.e. 32, 34, 36, 40 and 60 minutes after compound administration). The blood samples at 15 and 60 minutes are not essential to the study and not always taken. Aprotinin is added to the blood sample (250 kIU/ml blood). The serum is then analyzed for glucose and insulin using standard methodologies.
# The assay uses a formulated and calibrated peptide stock in PBS. Normally, this stock is a prediluted 100 μM stock. However, a more concentrated stock with approximately 1 mg agonist per mL is used. The specific concentration is always known.
# rat VPAC1 receptor [1] = biological target: T1, rat VPAC1 receptor (Rattus norvegicus, UniProt P30083); assay: DiscoveRx in vitro potency, CHO-PO cells transiently transfected with rat VPAC 1 receptor DNA; format: cell-based; set-up: expressed in transfected cells; host or cells: CHO-PO, transient
# T1 sequence (P30083 31-459): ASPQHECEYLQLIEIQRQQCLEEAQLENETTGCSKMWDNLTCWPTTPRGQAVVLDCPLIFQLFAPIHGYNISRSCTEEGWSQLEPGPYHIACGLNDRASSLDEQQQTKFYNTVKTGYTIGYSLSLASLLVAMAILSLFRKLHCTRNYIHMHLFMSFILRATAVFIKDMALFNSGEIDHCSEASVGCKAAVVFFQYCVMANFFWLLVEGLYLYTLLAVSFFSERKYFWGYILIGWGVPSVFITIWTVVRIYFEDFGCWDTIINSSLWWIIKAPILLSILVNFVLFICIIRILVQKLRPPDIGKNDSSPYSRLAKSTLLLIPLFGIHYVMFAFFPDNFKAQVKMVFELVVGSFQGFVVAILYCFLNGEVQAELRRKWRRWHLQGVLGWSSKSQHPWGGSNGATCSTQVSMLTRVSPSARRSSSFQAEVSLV
# Description: Also, the cells are washed twice. […] The stimuli are present for 30 minutes. Then, the assay buffer is gently removed.
# rat VPAC1 receptor [2] = biological target: T1, rat VPAC1 receptor; assay: Competition binding on recombinant rat VPAC1 receptor expressed in CHO cells, 125I-VIP tracer; set-up: expressed in transfected cells; host or cells: CHO cells, crude membranes
# Description: The peptide samples are stored frozen and thawed prior to the assay. […] All peptide sample and reference compound dilutions are performed in PBS. Peptides solutions are kept in the cold room for four days. Stock solutions are stored at −80° C. New dilution curves are prepared every week.
# (§1) All studies are performed on crude membranes prepared from three different cell cultures expressing the different recombinant receptors, using methodology that is known in the literature. Duplicate values are obtained for each assay.
# The selectivity of the VPAC2 receptor peptide agonists of the present invention are tested on the rat VPAC1 and VPAC2 receptors recombinantly expressed in CHO cells.
# Each assay is done in duplicate and performed on two different membrane preparations.
# [3] = rat, in vivo, iv; for Exposure (10 μg/kg, Vdist in μg/(nM * kg)): 10 ug/kg
# Description: (§2) An IVGTT with glucose is given immediately after T=0 to 6 animals per condition. Samples are taken at 0, 2, 4, 6, and 10 minutes after injection.
# (§3) For cell handling, Plate 50,000 cells/well and keep in culture over night. Wash cell twice in PBS and add 50 μl/well stimulation medium consisting of PBS+1.2 MgCl2, 1.3 CaCl2, 2 glucose and 0.5 IBMX. Incubate 15 minutes and add 50 μl/well of the plasma samples (see layout below). Incubate 30 minutes, remove the supernatant and proceed as normal with the DiscoveRx assay. Prepare plates in duplicate. Protease and peptidase inhibitor are present in all plasma samples.
# human VPAC2 = biological target: T2, human VPAC2 (Homo sapiens, UniProt P41587); assay: DiscoveRx cAMP in vitro potency, CHO-S cell line stably expressing human VPAC2 receptor; format: cell-based; conditions: cAMP generation; mean of two independent runs
# T2 construct: expressed in transfected cells
# T2 sequence (P41587 24-438): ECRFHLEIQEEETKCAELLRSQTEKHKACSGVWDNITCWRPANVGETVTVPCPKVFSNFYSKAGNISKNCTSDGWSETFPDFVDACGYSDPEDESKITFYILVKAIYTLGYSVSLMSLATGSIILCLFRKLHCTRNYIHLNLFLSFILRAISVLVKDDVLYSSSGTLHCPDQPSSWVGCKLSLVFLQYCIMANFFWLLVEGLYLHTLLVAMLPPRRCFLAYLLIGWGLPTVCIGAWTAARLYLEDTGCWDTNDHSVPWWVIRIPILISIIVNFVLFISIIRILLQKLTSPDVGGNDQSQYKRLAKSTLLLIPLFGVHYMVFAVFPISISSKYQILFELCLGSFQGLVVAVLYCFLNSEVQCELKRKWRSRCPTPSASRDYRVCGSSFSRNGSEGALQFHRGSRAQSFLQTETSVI
# Description: Also, the cells are washed twice. The cells are incubated in assay buffer plus IBMX for 15 minutes at room temperature. […] The stimuli are present for 30 minutes. Then, the assay buffer is gently removed. […] At day 3, the assay described above for the VPAC2 receptor cell line is performed.
# conscious Wistar rats = assay: Oral glucose tolerance test (OGTT); format: in vivo, rat; conditions: for Effects on glucose, AUC(0-135 min) / Effects on insulin, AUC(0-75 min): OGTT (15 min)
# Description: Oral Glucose Tolerance Test (OGTT):
# The effect of a selective VPAC2 receptor peptide agonist (P31) on plasma insulin and glucose is evaluated during OGTT in conscious Wistar rats. The maximal dose of agonist is 10 μg/kg. Since the peptide is given intravenously and has a very short half-life, a delay between glucose and compound administrations is applied.
# rat PAC1 receptor = biological target: T3, rat PAC1 receptor (Rattus norvegicus, UniProt P32215); assay: Adenylate cyclase assay on recombinant rat PAC1 receptor expressed in CHO cells; format: biochemical
# T3 construct: expressed in transfected cells; host or cells: CHO cells, crude membranes
# T3 sequence (P32215 20-523): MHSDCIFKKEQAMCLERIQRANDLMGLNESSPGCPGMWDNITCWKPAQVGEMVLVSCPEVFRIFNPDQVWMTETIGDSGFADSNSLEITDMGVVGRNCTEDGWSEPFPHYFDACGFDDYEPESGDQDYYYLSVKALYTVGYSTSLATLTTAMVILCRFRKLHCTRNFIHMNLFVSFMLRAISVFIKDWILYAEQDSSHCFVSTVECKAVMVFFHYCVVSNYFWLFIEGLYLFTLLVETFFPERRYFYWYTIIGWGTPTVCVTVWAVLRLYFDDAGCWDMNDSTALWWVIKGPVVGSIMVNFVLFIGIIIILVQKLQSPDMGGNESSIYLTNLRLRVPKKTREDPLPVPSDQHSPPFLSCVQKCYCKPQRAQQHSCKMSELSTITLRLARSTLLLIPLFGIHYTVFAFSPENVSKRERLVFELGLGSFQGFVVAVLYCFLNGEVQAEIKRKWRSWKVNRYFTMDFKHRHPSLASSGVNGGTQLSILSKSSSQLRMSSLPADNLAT
# Description: as §1
# [4] = Pharmacokinetic assay: active peptide levels in rat plasma after IV injection
# Description: as §2, §3
# [5] = IC50 of tracer inhibition, 125I-VIP, with standard error, read-out: RAT VPAC1 IC50 (log M) (converted)
# [6] = Wistar, rat, plasma, iv, 10 ug/kg
compound,measurement,setting,value
Hexanoyl-HSDAVFTDNYTRLRKQVAAKKYLQSIKNKRYGGPSSGAPPPS [Agonist P31],Effects on glucose,Normal Wistar rats,None
same,"Effects on insulin, AUC(0-10 min)",Normal Wistar rats,+91% AUC(0-10 min)
same,EC50,rat VPAC1 receptor [1],0.44 nM
same,IC50,rat VPAC1 receptor [2]; [5],210 nM
same,"Exposure (10 μg/kg, Vdist in μg/(nM * kg))",[3],10 µg/nM/kg
same,EC50,human VPAC2,0.11 nM
same,"Effects on glucose, AUC(0-135 min)","conscious Wistar rats; #1, 10 μg/kg iv",−22% AUC(0-135 min)
same,"Effects on insulin, AUC(0-75 min)","conscious Wistar rats; #1, 10 μg/kg iv",+71% AUC(0-75 min)
same,"Effects on glucose, AUC(0-135 min)","conscious Wistar rats; #2, 0.5 μg/kg iv",−5% AUC(0-135 min)
same,"Effects on insulin, AUC(0-75 min)","conscious Wistar rats; #2, 0.5 μg/kg iv",+16% AUC(0-75 min)
same,"Effects on glucose, AUC(0-135 min)","conscious Wistar rats; #2, 10 μg/kg iv",−2% AUC(0-135 min)
same,"Effects on insulin, AUC(0-75 min)","conscious Wistar rats; #2, 10 μg/kg iv",+17% AUC(0-75 min)
same,"Effects on insulin, AUC(0-90 min)","conscious Wistar rats; OGTT (30 min), 10 μg/kg iv",+85% AUC(0-90 min)
same,"Effects on glucose, AUC(0-150 min)","conscious Wistar rats; OGTT (30 min), 10 μg/kg iv, (NS)",−1% AUC(0-150 min)
H-MHSDAVFTDNYTRLRKQVAAKKYLQSIKNKRYGGPSSGAPPPS [Agonist P104],potency ratio compared to PACAP-27,rat PAC1 receptor,> 1000
same,IC50,rat VPAC1 receptor [2],1760 nM
same,AUC(0-t),[4]; [6],0.355 nM·h
same,Cmax,[4]; [6],3.19 nM
same,half-life,[4]; [6],2.35 min
same,Exposure (10 μg/kg); clearance in μg/(min * nM * kg),"[4]; rat plasma, 10 μg/kg i.v.",0.87 µg/min/nM/kg
same,"Exposure (10 μg/kg, Vdist in μg/(nM * kg))","[4]; rat plasma, 10 μg/kg i.v.",2.64 µg/nM/kg
Hexanoyl-HSDAVFTDNYTRLR[Aib]QVAAK[Aib]YLQSIKNKRYGGPSSGAPPPS [Agonist P264],"Exposure (10 μg/kg, Vdist in μg/(nM * kg))",[3],5.1 µg/nM/kg
Hexanoyl-HSDAVFTDNYTRLR[Aib]QVAA[Aib]KYLQSIKNKRYGGPSSGAPPPS [Agonist P261],IC50,rat VPAC1 receptor [2]; [5],129 nM
same,"Exposure (10 μg/kg, Vdist in μg/(nM * kg))",[3],0.8 µg/nM/kg
Hexanoyl-HSDAVFTDNYTRLLAKLALQKYLQSIKNKRYGGPSSGAPPPS [Agonist P119],EC50,rat VPAC1 receptor [1],0.07 nM
same,IC50,rat VPAC1 receptor [2]; [5],29.2 nM
same,EC50,human VPAC2,0.34 nM
CCCCCC(=O)N[C@@H](Cc1c[nH]cn1)C(=O)N[C@@H](CO)C(=O)N[C@@H](CC(=O)O)C(=O)N[C@@H](C)C(=O)N[C@H](C(=O)N[C@@H](Cc1ccccc1)C(=O)N[C@H](C(=O)N[C@@H](CC(=O)O)C(=O)N[C@@H](CC(N)=O)C(=O)N[C@@H](Cc1ccc(O)cc1)C(=O)N[C@H](C(=O)N[C@@H](CCCNC(=N)N)C(=O)N[C@@H](CC(C)C)C(=O)N[C@@H](CCCNC(=N)N)C(=O)NC(C)(C)C(=O)N[C@@H](CCC(N)=O)C(=O)N[C@@H](CC(C)C)C(=O)N[C@@H](C)C(=O)N[C@@H](C)C(=O)NC(C)(C)C(=O)N[C@@H](CCCCN)C(=O)N[C@@H](Cc1ccc(O)cc1)C(=O)N[C@@H](CC(C)C)C(=O)N[C@@H](CCC(N)=O)C(=O)N[C@@H](CO)C(=O)N[C@H](C(=O)N[C@@H](CCCCN)C(=O)N[C@@H](CC(N)=O)C(=O)N[C@@H](CCCCN)C(=O)NCC(=O)NCC(=O)N1CCC[C@H]1C(=O)N[C@@H](CO)C(=O)N[C@@H](CO)C(=O)NCC(=O)N[C@@H](C)C(=O)N1CCC[C@H]1C(=O)N1CCC[C@H]1C(=O)N1CCC[C@H]1C(=O)N[C@@H](CO)C(=O)O)[C@@H](C)CC)[C@@H](C)O)[C@@H](C)O)C(C)C [Agonist P292] (Hexanoyl-HSDAVFTDNYTRLR[Aib]QLAA[Aib]KYLQSIKNKGGPSSGAPPPS-OH; C-terminus assumed),IC50,rat VPAC1 receptor [2]; [5],204 nM
same,"Exposure (0.5 μg/kg, Vdist in μg/(nM * kg))",[3]; 0.5 ug/kg,9.5 µg/nM/kg
same,"Exposure (10 μg/kg, Vdist in μg/(nM * kg))",[3],1.9 µg/nM/kg
